Results reported in patent US20020137929A1, “1 - (3-heterocyclylphenyl) isothiourea, -isourea, -guanidine and -amidine herbicidal agents” (Intellectual Property Department, BASF Aktiengesellschaft, priority 1998, published 2002).

What was measured:
[1] = test system: IPOSS (Morningglory Spp.); experiment: Postemergence herbicidal evaluation; assay type: in vivo, Ipomoea Spp.
Experimental: In the tests, seedling plants are grown in jiffy flats for about two weeks. The test compounds are dispersed in 50/50 acetone/water mixtures containing 0.5% TWEEN®20, a polyoxyethylene sorbitan monolaurate surfactant of Atlas Chemical Industries, in sufficient quantities to provide the equivalent of about 0.0156 kg to 0.500 kg per hectare of active compound when applied to the plants through a spray nozzle operating at 40 psi for a predetermined time. After spraying, the plants are placed on greenhouse benches and are cared for in accordance with conventional greenhouse procedures. From four to five weeks after treatment, the seedling plants are examined and rated according to the rating system set forth below. Where more than one test is involved for a given compound, the data are averaged.
Plant species employed in these evaluations are reported by header abbreviation, common name and scientific name.
Results of herbicide evaluation are expressed on a rating scale (0-9). The scale is based upon a visual observation of plant stand, vigor, malformation, size, chlorosis and overall plant appearance as compared with a control.

ABUTH (Velvetleaf) = experiment: Preemergence herbicidal evaluation; assay type: in vivo, Abutilon theophrasti; conditions: rated 4-5 weeks after treatment
How it was run: (§1)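 Seeds were mixed with potting soil and planted on about one inch of soil, then sprayed with test compound in aqueous acetone at about 0.0156 to 0.500 kg per hectare. Plants grew under standard greenhouse care and were visually rated 0-9 against untreated controls 4-5 weeks post-treatment.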

[2] = test system: IPOSS (Morningglory Spp.); experiment: Preemergence herbicidal evaluation; assay type: in vivo, Ipomoea Spp.; conditions: rated 4-5 weeks after treatment
How it was run: as §1

[3] = test system: TRZAWR (Wheat, Winter, cv Riband); experiment: Preemergence herbicidal evaluation; assay type: in vivo, Triticum aestivum; conditions: rated 4-5 weeks after treatment
How it was run: as §1

[4] = test system: ECHORC (Watergrass (Calif.)); experiment: Preemergence weed control under flooded paddy conditions; assay type: in vivo, Echinochloa oryzoides; conditions: rated 3-4 weeks after treatment
How it was run: (§2)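 Flooded-pot preemergence screen with silt loam and seeds in the upper 0.5 cm. Dose about 0.0313 to 0.500 kg/ha, delivered into flood water; visual 0-9 score after 3 to 4 weeks.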

CYPIR (Rice Flatsedge) = experiment: as above; assay type: in vivo, Cyperus iria; conditions: rated 3-4 weeks after treatment
How it was run: as §2

[5] = test system: SAGPY (Arrowhead (Pygmaea)); experiment: as above; assay type: in vivo, Sagittaria pygmaea; conditions: rated 3-4 weeks after treatment
How it was run: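 Ratings on a 0-9 visual scale cover stand, vigor, malformation, size, chlorosis and overall appearance relative to a control, taken three to four weeks post-treatment. Application was into flood water over freshly sown silt loam at roughly 0.0313 to 0.500 kg/ha.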

ORYSAT (Rice, Tebonnet) [6] = experiment: Rice tolerance to post-transplant applications, flooded paddy conditions (Table III); assay type: in vivo, Oryza sativa, (L.) Tebonnet; conditions: in vivo
How it was run: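 Two ten-day-old Tebonnet seedlings transplanted into flooded silt loam (water 1.5 to 3 cm above soil); three days later the water surface was treated with compound in aqueous/acetone 50/50 at about 0.0313 to 0.500 kg/ha. Visual 0-9 injury rating versus control after three to four weeks in greenhouse.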

MOOVA (Monochoria) = experiment: Postemergence weed control under flooded paddy conditions; assay type: in vivo, Monochoria vaginalis; conditions: postemergence weeds, 3-4 weeks after treatment
How it was run: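 Containers holding 3–5 cm weeds and rice at 1.5–2.5 leaves are flooded to 1.5–3 cm above soil. Compound in 50/50 v/v aqueous/acetone is then added directly to the water, about 0.0313–0.500 kg/ha. Plants are kept in the greenhouse and rated 0–9 visually at 3–4 weeks.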

ORYSAT (Rice, Tebonnet) [7] = experiment: Rice tolerance to post-transplant applications, flooded paddy conditions (Table IV); assay type: in vivo, Oryza sativa, (L.) Tebonnet; conditions: in vivo
How it was run: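 Weeds 3 to 5 cm tall and rice seedlings at the 1.5 to 2.5 leaf stage were flooded, with water held 1.5 to 3 cm above the soil. Compounds in 50/50 v/v aqueous/acetone went into the flood water at about 0.0313 to 0.500 kg/ha. Visual 0-9 ratings versus control were made 3 to 4 weeks later.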

CCC1SC(=Nc2cc(N3C(=O)C4=C(CCCC4)C3=O)c(F)cc2Cl)N(C)C1=O (stereo not shown) [Compound 6, N-{4-chloro-5-[(5-ethyl-3-methyl-4-oxo-2-thiazolidinylidene)amino]-2-fluorophenyl}-1-cyclohexene-1,2-dicarboximide]
IPOSS herbicidal rating ([1]; rate 0.0157 kg/ha): 0.0
IPOSS herbicidal rating ([1]; rate 0.0313 kg/ha): 0.0
IPOSS herbicidal rating ([1]; rate 0.0625 kg/ha): 0.0
IPOSS herbicidal rating ([1]; rate 0.1250 kg/ha): 2.0
IPOSS herbicidal rating ([1]; rate 0.2500 kg/ha): 4.0
IPOSS herbicidal rating ([1]; rate 0.5000 kg/ha): 9.0
ABUTH preemergence herbicidal rating (ABUTH (Velvetleaf); rate 0.1250 kg/ha): 0.0
ABUTH preemergence herbicidal rating (ABUTH (Velvetleaf); rate 0.2500 kg/ha): 0.0
ABUTH preemergence herbicidal rating (ABUTH (Velvetleaf); rate 0.5000 kg/ha): 0.0
IPOSS preemergence herbicidal rating ([2]; rate 0.1250 kg/ha): 0.0
IPOSS preemergence herbicidal rating ([2]; rate 0.2500 kg/ha): 0.0
IPOSS preemergence herbicidal rating ([2]; rate 0.5000 kg/ha): 0.0
TRZAWR preemergence herbicidal rating ([3]; rate 0.1250 kg/ha): 0.0
TRZAWR preemergence herbicidal rating ([3]; rate 0.2500 kg/ha): 0.0
TRZAWR preemergence herbicidal rating ([3]; rate 0.5000 kg/ha): 0.0
Herbicidal rating ECHORC ([4]; 0.0313 kg/ha): 0.0
Herbicidal rating ECHORC ([4]; 0.0625 kg/ha): 0.0
Herbicidal rating ECHORC ([4]; 0.1250 kg/ha): 2.0
Herbicidal rating ECHORC ([4]; 0.2500 kg/ha): 7.0
Herbicidal rating ECHORC ([4]; 0.5000 kg/ha): 7.0
Herbicidal rating CYPIR (CYPIR (Rice Flatsedge); 0.0313 kg/ha): 0.0
Herbicidal rating CYPIR (CYPIR (Rice Flatsedge); 0.0625 kg/ha): 2.0
Herbicidal rating CYPIR (CYPIR (Rice Flatsedge); 0.1250 kg/ha): 4.0
Herbicidal rating CYPIR (CYPIR (Rice Flatsedge); 0.2500 kg/ha): 6.0
Herbicidal rating CYPIR (CYPIR (Rice Flatsedge); 0.5000 kg/ha): 7.0
Herbicidal rating SAGPY ([5]; 0.0313 kg/ha): 0.0
Herbicidal rating SAGPY ([5]; 0.0625 kg/ha): 0.0
Herbicidal rating SAGPY ([5]; 0.1250 kg/ha): 0.0
Herbicidal rating SAGPY ([5]; 0.2500 kg/ha): 0.0
Herbicidal rating SAGPY ([5]; 0.5000 kg/ha): 0.0
Herbicidal rating ORYSAT (rice tolerance) (ORYSAT (Rice, Tebonnet) [6]): 0.0
Herbicidal rating MOOVA (MOOVA (Monochoria); rate 0.0313 kg/ha): 1.0
Herbicidal rating MOOVA (MOOVA (Monochoria); rate 0.0625 kg/ha): 4.0
Herbicidal rating MOOVA (MOOVA (Monochoria); rate 0.1250 kg/ha): 4.0
Herbicidal rating MOOVA (MOOVA (Monochoria); rate 0.2500 kg/ha): 4.5
Herbicidal rating MOOVA (MOOVA (Monochoria); rate 0.5000 kg/ha): 4.5
Herbicidal rating ORYSAT (rice tolerance) (ORYSAT (Rice, Tebonnet) [7]): 0.0
